Laboratory results from ChEMBL document CHEMBL1137781, “Synthesis and preclinical evaluation of novel PET probes for P-glycoprotein function and expression” (J Med Chem, 2009).

How the values were obtained:
NCI/ADR-RES [1] = experiment: Inhibition of Pgp in human MCF7/ADR cells assessed as potentiation of doxorubicin-induced cytotoxicity at 20 uM relative to untreated control; type: cell-based
NCI/ADR-RES [2] = experiment: Inhibition of Pgp in human MCF7/ADR cells assessed as increase in doxorubicin accumulation at 20 uM relative to untreated control; type: cell-based
Caco-2 = experiment: Ratio of permeability from basolateral to apical side over apical to basolateral side in human Caco-2 cells; type: ADME, cell-based

Question: Which fold change (FC) (NCI/ADR-RES [1]) does the source give for `COc1cc2c(cc1OC)CN(CC/C=C1\CCCc3c(OC)cccc31)CC2` here?
Answer: Its fold change (FC) is 95.

Question: What about the fold change (FC) (NCI/ADR-RES [2]) of the same compound?
Answer: Its fold change (FC) is 5.7.

Question: And the Ratio (Caco-2)?
Answer: Its Ratio is 1.6.
